Reference: patent EP2975033A1, “Improved cysteine-protease inhibitors” (Universitat Jaume I, priority 2014, dated 2016)
Values after ≈ are worked out from the molar mass of the structure shown. Values joined by “and” are separate entries in the source; they are usually repeats but may differ in a detail not shown here. Equal values may be shown once. Read-outs that look alike come from different tables or passages of the source.

Assays:
Rhodesain = target: T1, Rhodesain (Trypanosoma brucei rhodesiense, UniProt Q95PM0); assay: Protease assay, fluorogenic substrate Z-Phe-Arg-AMC: Rhodesain; type: biochemical; details: for IC50: RD=Rhodesain, 25 °C, pH 5.5, 10µM substrate
T1 construct: made in house
T1 sequence (Q95PM0 entry or part of it): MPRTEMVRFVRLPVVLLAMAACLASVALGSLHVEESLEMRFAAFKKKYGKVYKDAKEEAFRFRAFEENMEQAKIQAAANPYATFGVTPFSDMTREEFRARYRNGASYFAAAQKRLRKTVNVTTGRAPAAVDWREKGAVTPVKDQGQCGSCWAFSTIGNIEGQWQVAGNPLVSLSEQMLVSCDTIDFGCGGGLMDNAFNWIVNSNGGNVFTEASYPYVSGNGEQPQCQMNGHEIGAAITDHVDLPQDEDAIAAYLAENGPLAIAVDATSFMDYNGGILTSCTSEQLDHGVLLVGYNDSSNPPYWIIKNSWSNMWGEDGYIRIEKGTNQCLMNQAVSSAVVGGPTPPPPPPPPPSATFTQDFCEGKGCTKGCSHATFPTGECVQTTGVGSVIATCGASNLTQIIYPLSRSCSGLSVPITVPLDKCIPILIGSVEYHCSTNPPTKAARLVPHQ
From the text: (§1) 2.1.1. Protease Assays as shown in tables 1 and 2: Cathepsin L (human), Cathepsin B (human), Rhodesain (Trypanosoma brucei rhodesiense), Falcipain 2 (Plasmodium falciparum)
(§2) Enzyme assays used to identify inhibitors of the target cysteine proteases. The effect is detected measuring fluorescence increase due to hydrolysis of fluorogenic substrates by the target enzymes in absence and presence of potential inhibitors.
(§3) • a. Proteins (enzymes): • Cathepsin L (human liver) Calbiochem • Cathepsin B (human liver) Calbiochem • Rhodesain: recombinantly expressed according to ref.: Caffrey, C. R.; Hansell, E.; Lucas, K. D.; Brinen, L. S.; Hernandez, A. A.; Cheng, J.; Gwaltney, S. L., II; Roush, W. R.; Stierhof, Y. D.; Bogyo, M.; Steverding, D.; McKerrow, J. H. Active site mapping, biochemical properties and subcellular localization of rhodesain, the major cysteine protease of Trypanosoma • Falcipain 2: recombinantly expressed according to ref.: Pandey, K. C.; Wang, S. X.; Sijwali, P. S.; Lau, A. L.; McKerrow, J. H.; Rosenthal, P. J. The Plasmodium falciparum cysteine protease falcipain-2 captures its substrate, hemoglobin, via a unique motif. Proc. Natl. Acad. Sci. U.S.A. 2005, 102, 9138-9143. • b. Buffers: • Cathepsin B: 50 mM Tris-Puffer pH 6.5 mit 2 mM DTT, 5 mM EDTA, 200 mM NaCl, 0.005% Brij35 • Cathepsin L: 50 mM Tris-Puffer pH 6.5 mit 2 mM DTT, 5 mM EDTA, 200 mM NaCl, 0.005% Brij35 • Rhodesain: 50 mM Acetat-Puffer pH 5.5 mit 5 mM DTT, 5 mM EDTA, 200 mM NaCl, 0.005% Brij35 • Falcipain 2: 50 mM Acetat-Puffer pH 5.5 mit 5 mM DTT, 5 mM EDTA, 200 mM NaCl, 0.005% Brij35 • c. Substrates: • Cathepsin L: 6,25 µM Z-Phe-Arg-7-amino-4-methylcumarin, HCl von Bachem, Ex 380 nm, Em 460 nm • Cathepsin B: 100 µM Z-Phe-Arg-7-amino-4-methylcumarin, HCl von Bachem, Ex 380 nm, Em 460 nm • Rhodesain: 10µM Z-Phe-Arg-7-amino-4-methylcumarin, HCl von Bachem, Ex 380 nm, Em 460 nm • Falcipain 2: 25µM Z-Phe-Arg-7-amino-4-methylcumarin, HCl von Bachem, Ex 380 nm, Em 460 nm • Reference substance(s)/positive control(s): E64 • d. Solvent for inhibitors and substrates: DMSO 99,5% (GC) DC4540, Sigma • e. Measurement device: Tecan Fluorescence spectrophotometer infinite F200 Pro • f. Well plates: 96 well plates, Lia-Plate White, Greiner bio-one, flat bottom, high binding • g. Methodology: Substrates and inhibitor stock solutions are prepared in DMSO and diluted with the respective assay buffer (final DMSO concentration: […]). Enzyme stock solutions are diluted with assay buffer to yield a fluorescence increase of dF/min ≈ _20. Total volume: 200 µL (180 µL of assay buffer, 5 µL of enzyme solution, 10 µL of DMSO or inhibitor solution, 5 µL of substrate solution). Assays are started by the addition of substrate solution. Fluorescence increase is detected over a period of 10 - 30 min, depending on time dependent (30 min) or non-time dependent (10 min) inhibition. • h. Temp: 25 °C • i. DATA-[…] • Software: Grafit 5.013 • Ki values are calculated from IC50 values (obtained by the 4-parameter IC50 equation) using the Chen-Prusoff equation: Ki=IC50/(1 + [S]/Km)
(§4) In vitro inhibition of cysteine-proteases cruzain (CR) (Trypanosoma cruzi (T. cruzi)), rhodesain (RD) (T. brucei), cathepsin B (CB), falcipain (FP2) (Plasmodium falciparum) and cathepsin L (CL) was assessed by quantification of the resulting fluorescence emission of the proteolytic breakdown of synthetic compound Z-Phe-Arg-AMC (Bachem). The results of this determination are shown in tables 1 and 2 illustrated above.

Cathepsin B (human) = target: T2, Cathepsin B (human) (Homo sapiens, UniProt P07858); assay: Protease assay, fluorogenic substrate Z-Phe-Arg-AMC: Cathepsin B; type: biochemical; details: CB=CathepsinB; for IC50: 25 °C, pH 6.5, 100 µM substrate, read-out: CBIC50micM
T2 construct: Cathepsin B (human liver) Calbiochem; purchased Calbiochem; host or cells: human liver (tissue-derived)
From the text: as §1, §2, §3, §4

Falcipain 2 = target: T3, Falcipain 2 (Plasmodium falciparum, UniProt Q8I6U4); assay: Protease assay, fluorogenic substrate Z-Phe-Arg-AMC: Falcipain 2; type: biochemical; details: FP2=Falcipain2
T3 construct: made in house
T3 sequence (Q8I6U4 244-484): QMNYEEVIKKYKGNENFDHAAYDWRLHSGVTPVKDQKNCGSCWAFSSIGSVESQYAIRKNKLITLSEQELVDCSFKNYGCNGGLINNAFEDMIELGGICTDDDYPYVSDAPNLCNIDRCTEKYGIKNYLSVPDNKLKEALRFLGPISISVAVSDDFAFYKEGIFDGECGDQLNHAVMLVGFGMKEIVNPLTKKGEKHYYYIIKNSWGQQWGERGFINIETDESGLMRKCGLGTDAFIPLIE
From the text: as §1, §2, §3, §4

cruzain (CR) = cruzain (CR) (Trypanosoma cruzi, UniProt P25779); assay: In vitro inhibition of cruzain, fluorescence of Z-Phe-Arg-AMC breakdown; type: biochemical
Sequence of cruzain (CR) (P25779 123-467): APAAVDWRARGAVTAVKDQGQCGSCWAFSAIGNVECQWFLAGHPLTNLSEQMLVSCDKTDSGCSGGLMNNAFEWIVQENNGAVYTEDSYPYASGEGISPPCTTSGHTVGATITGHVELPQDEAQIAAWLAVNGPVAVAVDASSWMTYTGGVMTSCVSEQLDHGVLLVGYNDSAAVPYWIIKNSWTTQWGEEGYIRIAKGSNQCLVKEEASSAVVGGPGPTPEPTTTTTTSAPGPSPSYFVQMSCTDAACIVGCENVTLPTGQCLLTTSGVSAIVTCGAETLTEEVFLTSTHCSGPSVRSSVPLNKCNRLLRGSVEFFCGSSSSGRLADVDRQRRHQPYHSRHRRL
Method: as §2, §4

Cathepsin L (human) = target: T4, Cathepsin L (human) (Homo sapiens, UniProt P07711); assay: Protease assay, fluorogenic substrate Z-Phe-Arg-AMC: Cathepsin L; type: biochemical
T4 construct: Cathepsin L (human liver) Calbiochem; purchased Calbiochem; host or cells: human liver (tissue-derived)
T4 sequence (P07711 114-333): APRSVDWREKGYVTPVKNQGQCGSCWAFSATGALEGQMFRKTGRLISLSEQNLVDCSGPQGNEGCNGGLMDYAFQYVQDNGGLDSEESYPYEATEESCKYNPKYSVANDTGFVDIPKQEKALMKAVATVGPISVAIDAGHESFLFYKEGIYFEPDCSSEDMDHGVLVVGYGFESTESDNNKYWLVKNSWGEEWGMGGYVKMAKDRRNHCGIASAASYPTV
From the text: as §1, §2, §3, §4

[1] = test system: L. donovani strain MHOM/ET/67/L82; assay: Activity against L. donovani axenic amastigotes (Alamar Blue); type: cell-based
Method: For all the susceptibility assays with parasites and cells, each drug was tested in duplicate and each assay was repeated at least once. • a. Activity against Trypanosoma brucei rhodesiense STIB900. This stock was isolated in 1982 from a human patient in Tanzania and after several mouse passages cloned and adapted to axenic culture conditions (Baltz et al 1985) Minimum Essential Medium (50 µl) supplemented with 25 mM HEPES, 1g/l additional glucose, 1% MEM non-essential amino acids (100x), 0.2 mM 2-mercaptoethanol, 1 mM Na-pyruvate and 15% heat inactivated horse serum was added to each well of a 96-well microtiter plate. Serial drug dilutions of eleven 3-fold dilution steps covering a range from 100 to 0.002 µg/ml were prepared. Then 4x10^3 bloodstream forms of T. b. rhodesiense STIB 900 in 50 µl was added to each well and the plate incubated at 37 °C under a 5 % CO2 atmosphere for 70 h. 10 µl Alamar Blue (resazurin, 12.5 mg in 100 ml double-distilled water) was then added to each well and incubation continued for a further 2-4 h (Raz et al 1997). Then the plates were read with a Spectramax Gemini XS microplate fluorometer (Molecular Devices Cooperation, Sunnyvale, CA, USA) using an excitation wave length of 536 nm and an emission wave length of 588 nm. The IC50 values were calculated by linear regression (Huber 1993) from the sigmoidal dose inhibition curves using SoftmaxPro software (Molecular Devices Cooperation, Sunnyvale, CA, USA). Melarsoprol (Arsobal Sanofi-Aventis, received from WHO) is used as control. • b. Activity against T. cruzi. Rat skeletal myoblasts (L-6 cells) were seeded in 96-well microtitre plates at 2000 cells/well in 100 µL RPMI 1640 medium with 10% FBS and 2 mM I-glutamine. After 24 h the medium was removed and replaced by 100 µl per well containing 5000 trypomastigote forms of T. cruzi Tulahuen strain C2C4 containing the β-galactosidase (Lac Z) gene (Buckner et al. 1996). After 48 h the medium was removed from the wells and replaced by 100 µl fresh medium with or without a serial drug dilution of eleven 3-fold dilution steps covering a range from 100 to 0.002 µg/ml. After 96 h of incubation the plates were inspected under an inverted microscope to assure growth of the controls and sterility. Then the substrate CPRG/Nonidet (50 µl) was added to all wells. A color reaction developed within 2-6 h and could be read photometrically at 540 nm. Data were analyzed with the graphic programme Softmax Pro (Molecular Devices), which calculated IC50 values by linear regression (Huber 1993) from the sigmoidal dose inhibition curves. […] Activity against L. donovani axenic amastigotes. Amastigotes of L. donovani strain MHOM/ET/67/L82 were grown in axenic culture at 37 °C in SM medium (Cunnigham et al. 1977) at pH 5.4 supplemented with 10% heat-inactivated fetal bovine serum under an atmosphere of 5% CO2 in air. One hundred microlitres of culture medium with 10^5 amastigotes from axenic culture with or without a serial drug dilution were seeded in 96-well microtitre plates. Serial drug dilutions of eleven 3-fold dilution steps covering a range from 90 to 0.002 µg/ml were prepared. After 70 h of incubation the plates were inspected under an inverted microscope to assure growth of the controls and sterile conditions. 10 µl of Alamar Blue (12.5 mg resazurin dissolved in 100 ml distilled water) (Mikus and Steverdig. 2000) were then added to each well and the plates incubated for another 2 h. Then the plates were read with a Spectramax Gemini XS microplate fluorometer (Molecular Devices Cooperation, Sunnyvale, CA, USA) using an excitation wave length of 536 nm and an emission wave length of 588 nm. Data were analyzed using the software Softmax Pro (Molecular Devices Cooperation, Sunnyvale, CA, USA). Decrease of fluorescence (= inhibition) was expressed as percentage of the fluorescence of control cultures and plotted against the drug concentrations. From the sigmoidal inhibition curves the IC50 values were calculated. • d.

[2] = read-out: CL(IC50); CL=CathepsinL; 25 °C, pH 6.5, 6,25 µM substrate

Row | Structure (SMILES) | RD(K2nd(M-1s-1)) (Rhodesain) [M⁻¹ s⁻¹] | IC50 (Rhodesain) [nM] | CB(K2nd(M-1s-1)) (Cathepsin B (human)) [M⁻¹ s⁻¹] | IC50 (Cathepsin B (human)) [nM] | FP2(K2nd(M-1s-1)) (Falcipain 2) [M⁻¹ s⁻¹] | CR(K2nd(M-1s-1)) (cruzain (CR)) [M⁻¹ s⁻¹] | IC50 (cruzain (CR)) [nM] | CL(K2nd(M-1s-1)) (Cathepsin L (human); CL=CathepsinL) [M⁻¹ s⁻¹] | IC50 (Cathepsin L (human); [2]) [nM] | IC50 ([1]; Leishmania donovani, 70 h, pH 5.4, replicate 2, axenic amastigotes, pH 5.4, 70 h, read-out: L.don. ax am IC50 repl2) [µg/mL] | L.don. ax am IC50 mean ([1]; mean of replicates) | L.don. ax am IC50 repl1 ([1]; replicate 1, axenic amastigotes, pH 5.4, 70 h) | IC50 (Cathepsin L (human); CL=CathepsinL; 25 °C, pH 6.5, 6,25 µM substrate; read-out: CL(IC50)) [nM]
1 | CCOC(=O)/C=C/C(=O)[C@H](C)NC(=O)[C@H](Cc1ccccc1)NC(=O)OCc1ccccc1 | 6481 | 590 | 4738 | 140 | 28285 | 139583 | 290 | 197273 | 90 |  |  |  | 
2 | CCOC(=O)/C=C/C(=O)[C@H](CCc1ccccc1)NC(=O)[C@H](CC(C)C)NC(=O)OCc1ccccc1 [drawing 39] | 116147 | 145 | 42393 | 50 | 6035 | 60784 | 77 | 29885 | 257 |  |  |  | 
3 | CCCCCCCCCCCCCCCCOP(=O)([O-])OCC[N+](C)(C)C [Miltefosine, reference compound] |  |  |  |  |  |  |  |  |  | 0.071 (≈ 0.174 µM) | 0,059 micrograms/mL and 1,44 micrograms/mL | 0,046 micrograms/mL and 1,44 micrograms/mL | 
4 | CCOC(=O)/C=C/[C@@H](O)[C@H](CCc1ccccc1)NC(=O)[C@H](Cc1ccccc1)NC(=O)OCc1ccccc1 | 3207 | 9500 | 772 | 24000 | 557 |  |  | 1127 |  |  |  |  | 13000
